Results on 3 compounds are retold here after patent US10639320B2, “Pharmaceutical composition comprising gold-containing agent for preventing or treating liver fibrosis or liver cirrhosis” (KOREA UNITED PHARM. INC., priority 2014, dated 2020).

The test system of assay [1] is RAW264.7 cells. The experiment in a line: Arginase-1 expression by western blot in RAW264.7 cells under M2-type differentiation (IL-4). The assay is classed as cell-based, mouse. The settings on record: RAW264.7 cells treated with IL-4 (M2-type condition). How it is done: (§1) Sodium dodecyl sulfate-polyacrylamide gel electrophoresis (SDS-PAGE) was performed using a gel electrophoresis apparatus (Mighty Small SE 250, Hoefer Scientific Instruments, San Francisco, USA) according to the Laemmli's protocol. A dissolved fraction of cells was diluted in a sample dilution buffer [63 mM Tris (pH.6.8), 10% glycerol, 2% SDS, 0.0013% bromophenol blue, 5% β-mercaptoethanol) and electrophoresed in an electrode buffer (containing Tris (15 g), glycerin (72 g), and SDS (5 g) in 1L solution) using 8%- and 10% gels. Upon completion of gel electrophoresis, the gel was transferred onto a nitrocellulose membrane at 40 mAmps for 3 hours in a transfer buffer solution (25 mM Tris, 192 mM glycerin, 20% v/v methanol (pH 8.3)). Each of anti-TREM-2, anti-arginase-1, anti-iNOS, anti-α-SMA, and anti-collagen-1a1, as primary antibodies, was reacted on the nitrocellulose membrane, respectively, and horseradish peroxidase-conjugated goat anti-rabbit IgG and horseradish peroxidase-conjugated goat anti-mouse IgG, as secondary antibodies, were reacted thereonto for 1 hour, and the nitrocellulose membrane was allowed to develop colors using the ECL detection system (ECL chemiluminescence system, Amersham, Gaithesberg, Mass., USA). […] In each lane, the intensities were calculated using the AlphaEase™ version 5.5 software by subtracting background intensities. […]
(A western blot detects proteins with antibodies after separation by electrophoresis.)

The subject of assay [2] is RAW264.7 cells. The experiment in a line: iNOS and TREM-2 expression by western blot in RAW264.7 cells under M1-type differentiation (LPS/IFN-γ). Format: cell-based, mouse. The settings on record: RAW264.7 cells treated with LPS/IFN-γ (M1-type condition). How it is done: Sodium dodecyl sulfate-polyacrylamide gel electrophoresis (SDS-PAGE) was performed using a gel electrophoresis apparatus (Mighty Small SE 250, Hoefer Scientific Instruments, San Francisco, USA) according to the Laemmli's protocol. A dissolved fraction of cells was diluted in a sample dilution buffer [63 mM Tris (pH.6.8), 10% glycerol, 2% SDS, 0.0013% bromophenol blue, 5% β-mercaptoethanol) and electrophoresed in an electrode buffer (containing Tris (15 g), glycerin (72 g), and SDS (5 g) in 1L solution) using 8%- and 10% gels. Upon completion of gel electrophoresis, the gel was transferred onto a nitrocellulose membrane at 40 mAmps for 3 hours in a transfer buffer solution (25 mM Tris, 192 mM glycerin, 20% v/v methanol (pH 8.3)). Each of anti-TREM-2, anti-arginase-1, anti-iNOS, anti-α-SMA, and anti-collagen-1a1, as primary antibodies, was reacted on the nitrocellulose membrane, respectively, and horseradish peroxidase-conjugated goat anti-rabbit IgG and horseradish peroxidase-conjugated goat anti-mouse IgG, as secondary antibodies, were reacted thereonto for 1 hour, and the nitrocellulose membrane was allowed to develop colors using the ECL detection system (ECL chemiluminescence system, Amersham, Gaithesberg, Mass., USA). The identity of protein contents in a sample was confirmed using anti-β-actin antibody and anti-lamin A/C. With respect to the change in the amount of protein expression, the coloration intensity was induced using a densitometry and the scanning of the densitometry was performed using the Image Scan & Analysis System, Alpha-Innotech Co. (USA). In each lane, the intensities were calculated using the AlphaEase™ version 5.5 software by subtracting background intensities.
In order to confirm whether gold-containing agents can induce the transformation into M2-type macrophages, the RAW264.7 cells, which is a mouse macrophage cell line, were treated with lipopolysaccharide (LPS)/interferon-gamma (IFN-γ), followed by treatment with auranofin in a condition for differentiation into M1-type macrophages, and the increase/decrease in expressions of iNOS and TREM-2 was confirmed by western blot analysis.
First, the RAW264.7 cells, which is a mouse macrophage cell line, were respectively treated with sodium aurothiomalate and aurothioglucose, which are analogous to auranofin, in a condition for differentiating the cells into M1-type macrophages by treating with lipopolysaccharide (LPS)/interferon-gamma (IFN-gamma), and the increase/decrease in expression of iNOS was confirmed by western blot analysis.

The next assay concerns MEF cells. The experiment in a line: α-SMA expression by western blot in MEF cells treated with medium of auranofin-treated RAW264.7 cells. The following applies: MEF cells treated with medium from treated RAW264.7 cells. The assay is classed as cell-based, mouse. How it is done:
as §1

Assay [3] deals with carbon tetrachloride-induced liver fibrosis. The experiment in a line: Mouse model with carbon tetrachloride-induced liver fibrosis: fibrosis scores, α-SMA and collagen-1a1 in liver tissue. The assay is classed as in vivo, C57BL/6J mice. The following applies: 5 times a week for 3 weeks, CCl4 mouse model. How it is done:
A mouse model with carbon tetrachloride-induced liver fibrosis was prepared by repeatedly administering 0.5 ml/kg of carbon tetrachloride to C57BL/6J mice twice a week for three weeks.
Sodium dodecyl sulfate-polyacrylamide gel electrophoresis (SDS-PAGE) was performed using a gel electrophoresis apparatus (Mighty Small SE 250, Hoefer Scientific Instruments, San Francisco, USA) according to the Laemmli's protocol. A dissolved fraction of cells was diluted in a sample dilution buffer [63 mM Tris (pH.6.8), 10% glycerol, 2% SDS, 0.0013% bromophenol blue, 5% β-mercaptoethanol) and electrophoresed in an electrode buffer (containing Tris (15 g), glycerin (72 g), and SDS (5 g) in 1L solution) using 8%- and 10% gels. Upon completion of gel electrophoresis, the gel was transferred onto a nitrocellulose membrane at 40 mAmps for 3 hours in a transfer buffer solution (25 mM Tris, 192 mM glycerin, 20% v/v methanol (pH 8.3)). Each of anti-TREM-2, anti-arginase-1, anti-iNOS, anti-α-SMA, and anti-collagen-1a1, as primary antibodies, was reacted on the nitrocellulose membrane, respectively, and horseradish peroxidase-conjugated goat anti-rabbit IgG and horseradish peroxidase-conjugated goat anti-mouse IgG, as secondary antibodies, were reacted thereonto for 1 hour, and the nitrocellulose membrane was allowed to develop colors using the ECL detection system (ECL chemiluminescence system, Amersham, Gaithesberg, Mass., USA). […] In each lane, the intensities were calculated using the AlphaEase™ version 5.5 software by subtracting background intensities.
In the case of liver tissue, a certain amount of liver tissue was homogenized in a mortar along with liquid nitrogen and a cell lysis buffer, transferred into a new tube, and vortexed. The resultant was centrifuged at 14,000 rpm and 4° C. for 20 minutes and the middle layer was collected therefrom and the protein amount was quantitated by Bradford assay. After subjecting 30 μg of the protein to electrophoresis by SDS-PAGE, the change in the expression of α-SMA protein was measured by western blot analysis. […]

As to `O=C([O-])CC([S-])C(=O)[O-].[Au+].[Na+].[Na+]` (stereo not shown) [sodium aurothiomalate], in the assay on RAW264.7 cells [1], the “expression of arginase-1” value is recorded as “increased”. In the assay on RAW264.7 cells [2], the “expression of iNOS” value is “inhibited”.
Consider `CC[PH](CC)(CC)[Au][S][C@@H]1O[C@H](COC(C)=O)[C@@H](OC(C)=O)[C@H](OC(C)=O)[C@H]1OC(C)=O` [auranofin, 2,3,4,6-tetra-O-acetyl-1-thio-β-D-glucopyranosato-S-[triethylphosphine] gold], for which, in the assay on MEF cells, the “expression of α-SMA” value is given as “inhibited”. In addition, in the assay with RAW264.7 cells [2], the “expression of TREM-2” value is “increasing” and the “expression of iNOS” value is given as “inhibited”. In addition, the liver fibrosis scores result in assay [3] (10 mg/kg oral, H&E staining) is “significantly lowered”. Further, in assay [3] (oral 1, 3 and 10 mg/kg), the “expression of collagen-1a1 in liver tissue” value is “apparently reduced” and the “expression of α-SMA in liver tissue” value is recorded as “apparently reduced”.
For the compound `OC[C@H]1O[C@H]([S-])[C@H](O)[C@@H](O)[C@@H]1O.[Au+]` [aurothioglucose], the “expression of arginase-1” value in the assay with RAW264.7 cells [1] was “increased”. For the same compound, the “expression of iNOS” value with RAW264.7 cells [2] is given as “inhibited”.
